Legend:
[1] = Anti-inflammatory activity: oedema provoked by carragenin in the rat; format: in vivo; conditions: po, read-out: percentage inhibition of oedema
Experimental: The method used was as follows.
The anti-inflammatory activity was measured on oedema provoked by carragenin in the rat. Groups of six male rats each weighing 120 to 130 g received the compound under test orally in suspension in "tween 80", half the dose being given 2 hours before and the other half 1/2 hour before the subcutaneous plantar injection of 0.05 ml of a 1 % carragenin solution. The volume of the injected paw was measured by plethysmography at regular intervals. Table 1 below gives the percentage inhibition of the oedema with reference to untreated controls.

[2] = Stimulation of dental pulp in the rabbit; format: in vivo
Experimental: 24 Hours before the test, each incisor of the rabbit is drilled 1 mm below the gum to a depth of about 1 mm. The next day, the animals are placed in restraining boxes and stimulating electrodes are placed in position. The threshold of reaction to the electrical stimulation (at 30 Hz; 10 ms; for 1 s) is measured by the munching reaction of the rabbits. The product of Example 1 was administered intravenously and its effect on the pain threshold was measured at regular intervals after treatment.

Escape test = format: in vivo; conditions: Mus musculus, ip, 0.5 h, read-out: Percentage inhibition (number of attempts to escape)
Experimental: Groups of 8 mice were placed in sub groups of 4 in an enclosure from which they could escape by an inclined plane. The number of attempts to escape during 5 minutes were counted half an hour after intraperitoneal administration of the compound under test.

[3] = Antagonism of convulsions produced by cardiazole; format: in vivo; conditions: Mus musculus, ip, read-out: Percentage inhibition of tonic convulsions
Experimental: Groups of 6 mice received the compound under test 30 minutes before introperitoneal injection of 160 mg/kg of cardiazole. The action of the compound under test on the tonic convulsion phase was observed.

[4] = Cardiovascular parameters: atropinised and bivagotomised dogs; format: in vivo, dog
Experimental: Unsorted dogs of either sex weighing 8 to 17 kg and anaesthetised by chloralose in solution in polyethylene glycol 300 (0.12 g/kg) were respirated artificially using a Bird pump (Mark 7). The carotid arterial blood pressure was measured with the aid of a Statham P 23 dB device. The left ventricular pressure is measured with the same device connected by a supple catheter introduced by the femoral artery and pushed into the left ventricle. The cardiac rhythm is measured from the signals of the carotid pressure. The myocardial contractile force is measured using a strain gauge (Apelab) attached to the right ventricle. All the parameters are recorded on a Beckman polygraph. Two series of dogs are used to test the cardiovascular activity: 5 dogs atropinised (1 mg/kg intravenously) and bivagotomised; and a second series of 4 intact dogs. The product of Example 1 was injected through the saphena vein and the duration of the injection was 2 minutes.
The following Table VIII gives the variations of the recorded parameters and their significance according to the t test (* p< 0.05; ** p<0.01).

[5] = Action on isoprenaline in dogs; format: in vivo, dog; conditions: only if atropinised and bivagotomised
[6] = Acute toxicity in the rat; conditions: in vivo
Solubility in water = format: physicochemical
[7] = 5 mg/kg intravenously, 5 dogs, * p<0.05
[8] = 8 mg/kg intravenously, 5 dogs, ** p<0.01

Cc1cccc(Nc2ncccc2C(=O)OCCN2CCOCC2)c1C [Example 1, β-Morpholino ethyl nixylate]
inhibition in vivo at 16 mg/kg ([1]; 16 mg/kg orally): 16%
inhibition in vivo at 32 mg/kg ([1]; 32 mg/kg orally): 20%
inhibition in vivo at 64 mg/kg ([1]; 64 mg/kg orally): 34%
inhibition in vivo at 128 mg/kg ([1]; 128 mg/kg orally): 45%
inhibition in vivo at 256 mg/kg ([1]; 256 mg/kg orally): 61%
Threshold, % (increase) ([2]; 2.5 mg/kg intravenously, 1h30): 59%
Threshold in volts ([2]; 2.5 mg/kg intravenously, 1h30, pre-treatment 2.26): 3.61 volts
Threshold, % (increase) ([2]; 2.5 mg/kg intravenously, 2h30): 47%
Threshold in volts ([2]; 2.5 mg/kg intravenously, 2h30, pre-treatment 2.26): 3.33 volts
Threshold, % (increase) ([2]; 2.5 mg/kg intravenously, 15 min): 38%
Threshold in volts ([2]; 2.5 mg/kg intravenously, 15 min, pre-treatment 2.26): 3.12 volts
Threshold, % (increase) ([2]; 2.5 mg/kg intravenously, 30 min): 33%
Threshold in volts ([2]; 2.5 mg/kg intravenously, 30 min, pre-treatment 2.26): 3.02 volts
Threshold, % (increase) ([2]; 2.5 mg/kg intravenously, 1 h): 41%
Threshold in volts ([2]; 2.5 mg/kg intravenously, 1 h, pre-treatment 2.26): 3.20 volts
Threshold, % (increase) ([2]; 2.5 mg/kg intravenously, 2 h): 56%
Threshold in volts ([2]; 2.5 mg/kg intravenously, 2 h, pre-treatment 2.26): 3.54 volts
Threshold, % (increase) ([2]; 5 mg/kg intravenously, 1h30): 59%
Threshold in volts ([2]; 5 mg/kg intravenously, 1h30, pre-treatment 2.54): 4.05 volts
Threshold, % (increase) ([2]; 5 mg/kg intravenously, 2h30): 15%
Threshold in volts ([2]; 5 mg/kg intravenously, 2h30, pre-treatment 2.54): 2.94 volts
Threshold, % (increase) ([2]; 5 mg/kg intravenously, 15 min): 95%
Threshold in volts ([2]; 5 mg/kg intravenously, 15 min, pre-treatment 2.54): 4.97 volts
Threshold, % (increase) ([2]; 5 mg/kg intravenously, 30 min): 88%
Threshold in volts ([2]; 5 mg/kg intravenously, 30 min, pre-treatment 2.54): 4.80 volts
Threshold, % (increase) ([2]; 5 mg/kg intravenously, 1 h): 58%
Threshold in volts ([2]; 5 mg/kg intravenously, 1 h, pre-treatment 2.54): 4.02 volts
Threshold, % (increase) ([2]; 5 mg/kg intravenously, 2 h): 30%
Threshold in volts ([2]; 5 mg/kg intravenously, 2 h, pre-treatment 2.54): 3.31 volts
Threshold, % (increase) ([2]; 10 mg/kg intravenously, 1h30): 52%
Threshold in volts ([2]; 10 mg/kg intravenously, 1h30, pre-treatment 2.65): 4.05 volts
Threshold, % (increase) ([2]; 10 mg/kg intravenously, 2h30): 24%
Threshold in volts ([2]; 10 mg/kg intravenously, 2h30, pre-treatment 2.65): 3.29 volts
Threshold, % (increase) ([2]; 10 mg/kg intravenously, 15 min): 74%
Threshold in volts ([2]; 10 mg/kg intravenously, 15 min, pre-treatment 2.65): 4.62 volts
Threshold, % (increase) ([2]; 10 mg/kg intravenously, 30 min): 118%
Threshold in volts ([2]; 10 mg/kg intravenously, 30 min, pre-treatment 2.65): 5.80 volts
Threshold, % (increase) ([2]; 10 mg/kg intravenously, 1 h): 69%
Threshold in volts ([2]; 10 mg/kg intravenously, 1 h, pre-treatment 2.65): 4.49 volts
Threshold, % (increase) ([2]; 10 mg/kg intravenously, 2 h): 40%
Threshold in volts ([2]; 10 mg/kg intravenously, 2 h, pre-treatment 2.65): 3.72 volts
change in vivo at 8 mg/kg (Escape test; 8 mg/kg intraperitoneally): 6%
change in vivo at 16 mg/kg (Escape test; 16 mg/kg intraperitoneally): 3%
change in vivo at 32 mg/kg (Escape test; 32 mg/kg intraperitoneally): -8%
change in vivo at 64 mg/kg (Escape test; 64 mg/kg intraperitoneally): -51%
change in vivo at 128 mg/kg (Escape test; 128 mg/kg intraperitoneally): -100%
inhibition in vivo at 8 mg/kg ([3]; 8 mg/kg intraperitoneally): 0%
inhibition in vivo at 16 mg/kg ([3]; 16 mg/kg intraperitoneally): 12%
inhibition in vivo at 32 mg/kg ([3]; 32 mg/kg intraperitoneally): 21%
inhibition in vivo at 64 mg/kg ([3]; 64 mg/kg intraperitoneally): 62%
inhibition in vivo at 128 mg/kg ([3]; 128 mg/kg intraperitoneally): 95%
Average blood pressure ([4]; 1 mg/kg intravenously, 5 dogs): -4±2%
Diastolic blood pressure ([4]; 1 mg/kg intravenously, 5 dogs): -4±2%
Systolic blood pressure ([4]; 1 mg/kg intravenously, 5 dogs): -3,3±3%
Average blood pressure ([4]; 2 mg/kg intravenously, 2 dogs): -12%
Diastolic blood pressure ([4]; 2 mg/kg intravenously, 2 dogs): -12%
Duration of reduced blood pressure ([4]; 2 mg/kg intravenously, 2 dogs): 30
Systolic blood pressure ([4]; 2 mg/kg intravenously, 2 dogs): -12%
Change in cardiac rhythm ([4]; 5 mg/kg intravenously, 5 dogs): -8 to -20 beats per minute
Diastolic blood pressure [4, 7]: -15±4%
Systolic blood pressure [4, 7]: -13±3%
Average blood pressure ([4]; 5 mg/kg intravenously, 5 dogs, ** p<0.01): -14±3%
Change in cardiac rhythm ([4]; 8 mg/kg intravenously, 5 dogs): -8 to -20 beats per minute
Average blood pressure [4, 8]: -26±5%
Diastolic blood pressure [4, 8]: -27±5%
Systolic blood pressure [4, 8]: -24±5%
Average blood pressure ([4]; 16 mg/kg intravenously, 2 dogs): -31%
Change in cardiac rhythm ([4]; 16 mg/kg intravenously, 2 dogs): -18 to -24 beats per minute
Diastolic blood pressure ([4]; 16 mg/kg intravenously, 2 dogs): -32%
Duration of reduced blood pressure ([4]; 16 mg/kg intravenously, 2 dogs): > 30
Systolic blood pressure ([4]; 16 mg/kg intravenously, 2 dogs): -30%
blood pressure ([4]; doses of 4 mg/kg and above, during the injection or one to two minutes afterwards): reduction in blood pressure
contractile force ([4]; during the injection or one to two minutes afterwards, 2 dogs only): slight increase in the contractile force
increase in the cardiac rhythm ([4]; during the injection or one to two minutes afterwards, according to the dose): 2-16 beats per minute
left ventricular blood pressure ([4]; measured in two dogs only): followed the variations of the arterial blood pressure
hypotension ([4]; two minutes after the injection): hypotension proportional to the dose injected
potentiation of the action of isoprenaline [5]: potentiates the action of isoprenaline in 3 dogs out of 5
LD50 at 168 h ([6]; ip): 875 mg/kg
LD50 at 168 h ([6]; po): > 2350 mg/kg
solubility in water (Solubility in water; dihydrochloride): very soluble
solubility in water (Solubility in water; monohydrochloride): sparingly soluable in water
